Laboratory results published in patent US20250074911A1, “MACROCYCLIC BTK INHIBITORS” (Crossfire Oncology Holding B.V., priority 2021, published 2025).

Experiments:
[1] = target: full-length BTK C481S enzyme (Homo sapiens (Human), UniProt Q06187, C481S); experiment: Biochemical kinase assay BTK C481S (IMAP)
Method in brief: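 IC50 values come from IMAP fluorescence polarization after quenching with progressive binding solution. The reaction ran 2 h at room temperature in the dark with 1.2 nM full-length C481S enzyme, 7 μM ATP and 50 nM fluorescein-labelled MBP-derived peptide, following a 1 h dark pre-incubation of compound with enzyme.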

wt-BTK = wt-BTK (Homo sapiens (Human), UniProt Q06187); experiment: Binding kinetics measurements (Surface Plasmon Resonance) on wt-BTK; details: for Tau (h) wt-BTK (Act): target residence time, SPR; for Kd: binding affinity by Surface Plasmon Resonance (SPR)
wt-BTK, sequence (Q06187 whole entry): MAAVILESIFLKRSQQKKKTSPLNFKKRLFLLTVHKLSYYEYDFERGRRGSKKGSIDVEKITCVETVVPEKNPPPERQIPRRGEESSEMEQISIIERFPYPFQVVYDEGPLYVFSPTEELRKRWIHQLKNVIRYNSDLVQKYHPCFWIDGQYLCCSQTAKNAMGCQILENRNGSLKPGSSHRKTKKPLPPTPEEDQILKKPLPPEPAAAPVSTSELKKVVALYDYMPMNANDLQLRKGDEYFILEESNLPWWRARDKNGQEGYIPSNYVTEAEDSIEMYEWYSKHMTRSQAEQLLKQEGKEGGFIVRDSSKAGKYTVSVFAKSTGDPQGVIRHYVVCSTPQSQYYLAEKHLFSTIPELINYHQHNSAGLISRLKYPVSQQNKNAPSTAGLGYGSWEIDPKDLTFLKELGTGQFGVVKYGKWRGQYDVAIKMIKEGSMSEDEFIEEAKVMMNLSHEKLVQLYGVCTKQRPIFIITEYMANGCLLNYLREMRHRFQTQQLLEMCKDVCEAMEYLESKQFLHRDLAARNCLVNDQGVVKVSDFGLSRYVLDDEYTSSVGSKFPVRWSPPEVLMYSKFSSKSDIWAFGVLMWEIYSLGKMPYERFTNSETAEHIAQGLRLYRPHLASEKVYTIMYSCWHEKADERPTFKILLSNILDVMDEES
Method in brief: (§1)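 Using streptavidin-captured kinase, binding was followed by SPR in 1% DMSO buffer at 22° C and 30 μl/min. Five consecutive compound injections spanned 3.16-316 nM, preceded by a blank run; data were double referenced before kinetic fitting.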

BTK T474I = BTK T474I (Homo sapiens (Human), UniProt Q06187, T474I); experiment: Binding kinetics measurements (Surface Plasmon Resonance) on BTK T474I; details: for Tau (h) BTK T474I (Act): target residence time, SPR; for Kd: binding affinity by Surface Plasmon Resonance (SPR)
BTK T474I, sequence (Q06187 whole entry T474I): as the sequence (Q06187 whole entry) above, with T474I counted along it
Method in brief: as §1

[2] = target: full-length wt-BTK enzyme (Homo sapiens (Human), UniProt Q06187); experiment: Biochemical kinase assay wt-BTK (IMAP)
full-length wt-BTK enzyme, sequence (Q06187 whole entry): as the sequence (Q06187 whole entry) above
Method in brief: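 Compound and enzyme (final 1.2 nM) were pre-incubated for 1 h at RT, after which the reaction was started with 4 μM ATP plus 50 nM fluorescein-MBP substrate peptide. After 2 h in the dark, the IMAP progressive binding reagent stopped the reaction, and phosphorylation was read by fluorescence polarization.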

REC-1 T474I cell lines = experiment: Cell proliferation assay REC-1 BTK T474I knock-in cells (ATPlite, 72 hours); type: cell-based; details: Homo sapiens, Rec1; 72 hours; read-out: IC50 REC-1 T474I
Method in brief: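 REC-1 cells carrying CRISPR knock-in mutant BTK, single-cell cloned and sequence-confirmed, were exposed to compound for 72 h and read by ATPlite luminescence. Percentage growth was calculated against the signal at the start of incubation and against untreated 0.3% DMSO wells as maximum growth.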

full-length BTK C481S enzyme, sequence (Q06187 whole entry C481S): as the sequence (Q06187 whole entry) above, with C481S counted along it

| IC50 [1] [nM] | Tau (h) wt-BTK (Act) (wt-BTK) [h] | Tau (h) BTK T474I (Act) (BTK T474I) [h] | IC50 [2] [nM] | Kd (wt-BTK) [nM] | Kd (BTK T474I) [nM] | SMILES | IC50 (REC-1 T474I cell lines) [nM] |
| --- | --- | --- | --- | --- | --- | --- | --- |
| < 5 | 10.14 | 1.15 | < 5 | – | – | N#Cc1ccnc(NC(=O)c2ccc(-c3nc4n5c(cnc(N)c35)/C=C/CCOCCC(=O)N[C@@H]3CC[C@@H]4C3)cc2)c1 [Example 201] | < 100 |
| < 5 | 4.42 | 2.64 | < 5 | < 5 | < 2 | C[C@@H]1CC(=O)N[C@@H]2CCC[C@H](C2)n2nc(-c3ccc(C(=O)Nc4cc(C(F)(F)F)ccn4)cc3)c3c(N)ncc(c32)/C=C/CCN1 [Example 45] | < 100 |
| < 5 | 5.64 | 0.90 | < 5 | – | – | N#Cc1ccnc(NC(=O)c2ccc(-c3nc4n5c(cnc(N)c35)/C=C/CCCCCC(=O)N[C@@H]3CC[C@@H]4C3)cc2)c1 [Example 204] | < 100 |
| < 5 | 5.55 | 0.85 | < 5 | – | – | N#Cc1ccnc(NC(=O)c2ccc(-c3nc4n5c(cnc(N)c35)/C=C/CCCCCC(=O)N[C@@H]3CCC[C@@H]4C3)cc2)c1 [Example 184] | < 100 |
| < 5 | 9.45 | 3.02 | < 5 | < 5 | < 2 | Nc1ncc2c3c1c(-c1ccc(C(=O)Nc4cc(C(F)(F)F)ccn4)cc1)nn3[C@@H]1CCC[C@H](C1)NC(=O)CCOC/C=C/2 [Example 25] | < 100 |
